Here are results for 1 compound from US20040171691A1, “Propofol with cysteine” (Transform Pharmaceuticals, Inc., priority 2002, published 2004).

This test deals with microorganisms. Description: Antimicrobial effectiveness, overall conclusion over the four USP test organisms. The format is cell-based. The following applies: after adventitious, extrinsic contamination. From the text:
Tables 2 through 5 compare the antimicrobial effectiveness of the cysteinate HCl formulation with that of Diprivan® and generic propofol formulation, as well as unpreserved Intralipid®.

Consider `Cl.N[C@@H](CS)C(=O)O` [cysteine/cysteinate HCl, Cysteine HCl], for which the “time for which significant growth of microorganisms is prevented” value was “at least 24 hours”.
